Patent US20100022483A1, “Substituted Tetracycline Compounds” (Paratek Pharmaceuticals, Inc., priority 2008, published 2010)
Converted amounts (≈) assume the structure as drawn. Read-outs that look alike come from different tables or passages of the source.

How the values were obtained:
in vitro = type: cell-based; conditions: Chinese hamster, Cytotox. CHO-K1
gram negative bacteria = assay: In vitro anti-bacterial activity assay (broth dilution MIC), gram negative bacteria; type: cell-based, E. coli
How it was run: (§1)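 Broth dilution MIC following CLSI M7-A2: compounds serially diluted, log-phase test strains added to final ~5×10^5 CFU/ml, incubated ~18 hours at 35° C in ambient air. Plates read on microplate reader or visually; MIC is lowest concentration inhibiting growth.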

3T3 fibroblast cells = assay: In vitro phototoxicity assay (neutral red; UV light-treated vs dark control plates); type: cell-based; conditions: for Photo Toxicity UV Tox50: UV light 50 minutes; for Photo Toxicity Dark Tox50: dark control plate
How it was run: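 Neutral red viability readout (A535 after EtOH/acetic acid extraction) compares paired plates: one exposed 50 min to UV at 1.6–1.8 mW/cm^2, one held in darkness, both dosed with compound in HBSS and recovered overnight. 3T3 fibroblast cells used; phototoxicity taken as the difference.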

gram positive bacteria = assay: In vitro anti-bacterial activity assay (broth dilution MIC), gram positive bacteria; type: cell-based, S. aureus; conditions: 18 h
How it was run: as §1

[1] = Mammalian cytotoxicity assay (resazurin), COS-1 cells; type: cell-based; conditions: African green monkey, read-out: Cytotox. COS-1
How it was run: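 Resazurin read-out (0.042 mg/ml, 2 h at 37° C. then 30 min dark, room temperature; fluorescence 535/590 nm) follows 24-hour compound exposure of overnight-seeded cells, serially diluted. IC50 is the concentration giving 50% growth inhibition.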

[2] = Escherichia coli, 18 h, E. coli D1 209, read-out: Median MIC's G− E. coli D1 209
[3] = Escherichia coli, 18 h, E. coli MG 1655, read-out: Median MIC's G− E. coli MG 1655
[4] = Escherichia coli, ATCC25922, 18 h, E. coli ATCC 25922, read-out: Median MIC's G− E. coli ATCC 25922
[5] = Pseudomonas aeruginosa, 18 h, P. aeruginosa K201 PAO6609, read-out: Median MIC's G− P. aeruginosa K201 PAO6609
[6] = Staphylococcus aureus, S. aureus MRSA5, read-out: Median MIC's G+ S. aureus MRSA5
[7] = Staphylococcus aureus, S. aureus RN450, read-out: Median MIC's G+ S. aureus RN450
[8] = Streptococcus pneumoniae, S. pneumoniae 157E-Strep, read-out: Median MIC's G+ S. pneumoniae 157E-Strep
[9] = Escherichia coli, 18 h, read-out: Median MIC's G− E. coli D1 209, E. coli D1 209
[10] = Escherichia coli, 18 h, read-out: Median MIC's G− E. coli MG 1655, E. coli MG 1655
[11] = Escherichia coli, ATCC25922, 18 h, read-out: Median MIC's G− E. coli ATCC 25922, E. coli ATCC 25922
[12] = Pseudomonas aeruginosa, 18 h, read-out: Median MIC's G− P. aeruginosa K201 PAO6609, P. aeruginosa K201 PAO6609

SMILES | IC50 at 24 h (in vitro) [µM] | MIC (gram negative bacteria; [2]) [µg/mL] | MIC (gram negative bacteria; [3]) [µg/mL] | MIC (gram negative bacteria; [4]) [µg/mL] | MIC (gram negative bacteria; [5]) [µg/mL] | Photo Toxicity UV Tox50 (3T3 fibroblast cells) [µM] | Photo Toxicity Dark Tox50 (3T3 fibroblast cells) [µM] | MIC (gram positive bacteria; [6]) [µg/mL] | MIC (gram positive bacteria; [7]) [µg/mL] | MIC (gram positive bacteria; [8]) [µg/mL] | IC50 at 24 h [1] [µM] | MIC (gram positive bacteria; Staphylococcus aureus, read-out: Median MIC's G+ S. aureus MRSA5) [µg/mL] | MIC (gram positive bacteria; Staphylococcus aureus, read-out: Median MIC's G+ S. aureus RN450) [µg/mL] | MIC (gram positive bacteria; Streptococcus pneumoniae, read-out: Median MIC's G+ S. pneumoniae 157E-Strep) [µg/mL] | MIC (gram negative bacteria; [9]) [µg/mL] | MIC (gram negative bacteria; [10]) [µg/mL] | MIC (gram negative bacteria; [11]) [µg/mL] | MIC (gram negative bacteria; [12]) [µg/mL]
CN(C)CCCc1cccc(-c2ccc(O)c3c2C[C@H]2C[C@H]4[C@H](N(C)C)C(O)=C(C(N)=O)C(=O)[C@@]4(O)C(O)=C2C3=O)c1 [DJ] | 119 | 2 (≈ 3.47 µM) | 8 (≈ 13.9 µM) | 2 (≈ 3.47 µM) | 64 (≈ 111 µM) | >200 | >200 | 4 (≈ 6.95 µM) | 0.0625 (≈ 0.109 µM) | 0.06 (≈ 0.104 µM) | 141 | – | – | – | – | – | – | –
CN1CCN(Cc2cccc(-c3ccc(O)c4c3C[C@H]3C[C@H]5[C@H](N(C)C)C(O)=C(C(N)=O)C(=O)[C@@]5(O)C(O)=C3C4=O)c2)CC1 [DK] | 92.3 | 2 (≈ 3.32 µM) | 4 (≈ 6.64 µM) | 1 (≈ 1.66 µM) | 64 (≈ 106 µM) | >200 | >200 | 4 (≈ 6.64 µM) | 0.0625 (≈ 0.104 µM) | 0.06 (≈ 0.0996 µM) | > 200 | – | – | – | – | – | – | –
CN1CCN(C(=O)c2cccc(-c3ccc(O)c4c3C[C@H]3C[C@H]5[C@@H](N(C)C)C(O)=C(C(N)=O)C(=O)[C@@]5(O)C(O)=C3C4=O)c2)CC1 [D] | > 131 | 64 (≈ 104 µM) | 64 (≈ 104 µM) | 64 (≈ 104 µM) | 64 (≈ 104 µM) | >130.51 | >130.51 | 64 (≈ 104 µM) | 32 (≈ 51.9 µM) | 4 (≈ 6.49 µM) | > 131 | – | – | – | – | – | – | –
CCN(CC)CCNC(=O)c1cccc(-c2ccc(O)c3c2C[C@H]2C[C@H]4[C@H](N(C)C)C(O)=C(C(N)=O)C(=O)[C@@]4(O)C(O)=C2C3=O)c1 [E, (4S,4aS,5aR,12aS)-7-[3-(2-Diethylamino-ethylcarbamoyl)-phenyl]-4-dimethylamino-3,10,12,12a-tetrahydroxy-1,1′-dioxo-1,4,4a,5,5a,6,11,12a-octahydro-naphthacene-2-carboxylic acid amide] | > 139 | 64 (≈ 101 µM) | 8 (≈ 12.6 µM) | 8 (≈ 12.6 µM) | 64 (≈ 101 µM) | >138.88 | >138.88 | 16 (≈ 25.3 µM) | 0.5 (≈ 0.79 µM) | 0.125 (≈ 0.198 µM) | > 139 | – | – | – | – | – | – | –
CCCCNC(=O)c1cccc(-c2ccc(O)c3c2C[C@H]2C[C@H]4[C@H](N(C)C)C(O)=C(C(N)=O)C(=O)[C@@]4(O)C(O)=C2C3=O)c1 [F] | > 15.2 | 64 (≈ 109 µM) | 64 (≈ 109 µM) | 64 (≈ 109 µM) | 64 (≈ 109 µM) | >151.73 | >151.73 | – | – | – | 15.2 | 1 (≈ 1.7 µM) | 0.06 (≈ 0.102 µM) | 0.06 (≈ 0.102 µM) | – | – | – | –
CN(C)[C@@H]1C(O)=C(C(N)=O)C(=O)[C@@]2(O)C(O)=C3C(=O)c4c(O)ccc(-c5cnc6ccccc6c5)c4C[C@H]3C[C@@H]12 [G] | 14.8 | 64 (≈ 118 µM) | 64 (≈ 118 µM) | 4 (≈ 7.39 µM) | 64 (≈ 118 µM) | 19.29 | >159.48 | 0.5 (≈ 0.923 µM) | 0.06 (≈ 0.111 µM) | 0.06 (≈ 0.111 µM) | 15.9 | – | – | – | – | – | – | –
CN(C)[C@H]1C(O)=C(C(N)=O)C(=O)[C@@]2(O)C(O)=C3C(=O)c4c(O)ccc(-c5cnc6ccccc6c5)c4C[C@H]3C[C@@H]12 [H] | > 15.9 | 64 (≈ 118 µM) | 64 (≈ 118 µM) | 64 (≈ 118 µM) | 64 (≈ 118 µM) | >159.48 | >159.48 | 2 (≈ 3.69 µM) | 0.5 (≈ 0.923 µM) | 0.25 (≈ 0.462 µM) | > 15.9 | – | – | – | – | – | – | –
CCOC(=O)CCNC(=O)c1cccc(-c2ccc(O)c3c2C[C@H]2C[C@H]4[C@H](N(C)C)C(O)=C(C(N)=O)C(=O)[C@@]4(O)C(O)=C2C3=O)c1 [I, 3-[3-((6aS,10S,10aS,11aR)-8-Carbamoyl-10-dimethylamino-4,6,6a,9-tetrahydroxy-5,7-dioxo-5,6a,7,10,10a,11,11a,12-octahydro-naphthacen-1-yl)-benzoylamino]-propionic acid ethyl ester] | > 14.2 | – | – | – | – | >141.76 | >141.76 | 2 (≈ 3.16 µM) | 0.06 (≈ 0.0947 µM) | 3 (≈ 4.73 µM) | > 14.2 | – | – | – | 64 (≈ 101 µM) | 64 (≈ 101 µM) | 64 (≈ 101 µM) | 64 (≈ 101 µM)
CN(C)CC(=O)Nc1cccc(-c2ccc(O)c3c2C[C@H]2C[C@H]4[C@H](N(C)C)C(O)=C(C(N)=O)C(=O)[C@@]4(O)C(O)=C2C3=O)c1 [K, (4S,4aS,5aR,12aS)-4-Dimethylamino-7-[3-(2-dimethylamino-acetylamino)-phenyl]-3,10,12,12a-tetrahydroxy-1,11-dioxo-1,4,4a,5,5a,6,11,12a-octahydro-naphthacene-2-carboxylic acid amide] | > 12.8 | 2 (≈ 3.39 µM) | 2 (≈ 3.39 µM) | 1 (≈ 1.69 µM) | 64 (≈ 108 µM) | >128.09 | >128.09 | 2 (≈ 3.39 µM) | 0.06 (≈ 0.102 µM) | 0.06 (≈ 0.102 µM) | > 12.8 | – | – | – | – | – | – | –
COCCNC(=O)c1cccc(-c2ccc(O)c3c2C[C@H]2C[C@H]4[C@H](N(C)C)C(O)=C(C(N)=O)C(=O)[C@@]4(O)C(O)=C2C3=O)c1 [L] | > 15.1 | 64 (≈ 108 µM) | 32 (≈ 54.1 µM) | 8 (≈ 13.5 µM) | 64 (≈ 108 µM) | >151.25 | >151.25 | 1 (≈ 1.69 µM) | 0.06 (≈ 0.101 µM) | 0.06 (≈ 0.101 µM) | > 15.1 | – | – | – | – | – | – | –
CNCCNC(=O)c1cccc(-c2ccc(O)c3c2C[C@H]2C[C@H]4[C@H](N(C)C)C(O)=C(C(N)=O)C(=O)[C@@]4(O)C(O)=C2C3=O)c1 [M] | > 143 | 64 (≈ 108 µM) | 64 (≈ 108 µM) | 64 (≈ 108 µM) | 64 (≈ 108 µM) | >143.16 | >143.16 | 64 (≈ 108 µM) | 4 (≈ 6.77 µM) | 32 (≈ 54.2 µM) | > 143 | – | – | – | – | – | – | –
CN(C)[C@@H]1C(O)=C(C(N)=O)C(=O)[C@@]2(O)C(O)=C3C(=O)c4c(O)ccc(-c5cccc(C(=O)NCCN)c5)c4C[C@H]3C[C@@H]12 [N] | > 46.8 | 64 (≈ 111 µM) | 64 (≈ 111 µM) | 64 (≈ 111 µM) | 64 (≈ 111 µM) | 95.14 | >150.87 | 64 (≈ 111 µM) | 2 (≈ 3.47 µM) | 16 (≈ 27.7 µM) | > 46.8 | – | – | – | – | – | – | –
CCN(CC)CCNC(=O)c1cccc(-c2ccc(O)c3c2C[C@H]2C[C@H]4[C@@H](N(C)C)C(O)=C(C(N)=O)C(=O)[C@@]4(O)C(O)=C2C3=O)c1 [O] | > 135 | 64 (≈ 101 µM) | 64 (≈ 101 µM) | 64 (≈ 101 µM) | 64 (≈ 101 µM) | >134.63 | >134.63 | 64 (≈ 101 µM) | 4 (≈ 6.32 µM) | 4 (≈ 6.32 µM) | > 135 | – | – | – | – | – | – | –
CN(C)CCCNC(=O)c1cccc(-c2ccc(O)c3c2C[C@H]2C[C@H]4[C@@H](N(C)C)C(O)=C(C(N)=O)C(=O)[C@@]4(O)C(O)=C2C3=O)c1 [P] | > 123 | 64 (≈ 103 µM) | 64 (≈ 103 µM) | 64 (≈ 103 µM) | 64 (≈ 103 µM) | >122.9 | >122.9 | 64 (≈ 103 µM) | 4 (≈ 6.47 µM) | 8 (≈ 12.9 µM) | > 123 | – | – | – | – | – | – | –
CN(C)CCN(C)C(=O)c1cccc(-c2ccc(O)c3c2C[C@H]2C[C@H]4[C@H](N(C)C)C(O)=C(C(N)=O)C(=O)[C@@]4(O)C(O)=C2C3=O)c1 [R] | > 137 | – | – | – | – | >137.36 | >137.36 | 64 (≈ 103 µM) | 0.5 (≈ 0.808 µM) | 0.25 (≈ 0.404 µM) | > 137 | – | – | – | 64 (≈ 103 µM) | 15 (≈ 24.2 µM) | 32 (≈ 51.7 µM) | 64 (≈ 103 µM)
